Where no end group is shown, it is not given here.
target: LC8 (UniProt P63167); assay: not given; conditions: rotavirus A VP4 residues 644–651; ref Martínez-Moreno et al, 2003; cited from earlier work
Excerpt: We scanned Homo sapiens and viral proteomes for potential LC8-binding sequences based upon: (1) their propensity for disorder, (2) their sequence conservation across related species, and (3) the sequence’s similarity to known motifs. This final parameter used a PSSM based on the relative enrichment or depletion of each residue in a potential sequence, weighted by amino acid frequency. Enrichment and depletion PSSMs were populated using sequences that interact with LC8, verified either by mutagenesis or in vitro assays. ITC experiments were performed on 19 synthetic peptides with high-scoring s ...

Sequence of LC8 (P63167 whole entry, the tested form may be a part): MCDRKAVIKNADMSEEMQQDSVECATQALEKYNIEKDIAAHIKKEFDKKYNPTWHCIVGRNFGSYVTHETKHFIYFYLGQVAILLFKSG

Sequence | binding to LC8 (in words)
IDMSTQIG [rotavirus A VP4 residue position 644–651, site predicted and tested in a previous study] | did not bind LC8

target: LC8 (UniProt P63167); assay: ITC of synthetic peptides binding to LC8; conditions: Fig 3B; ITC, 25°C, 50 mM NaCl, 50 mM NaPO4, 1 mM NaN3, pH 7.5; single-site model; average of two to three independent experiments; read-out: Kd

Sequence | Kd
RNSQTQTD [VP35(EBV), synthesized to validate previous data] | 0.8 µM
VAQGTQTP [BSN^III, synthesized to validate previous data] | 5.3 µM
ISRMTQTP [RAVL, synthesized to validate previous data] | 8 µM

same assay, conditions: ITC, 25°C, pH 7.5; single-site model; read-out: Kd

Sequence | Kd
KDGDTQTD [HTATSF1, peptide from HIV Tat-specific factor 1, UniProt O43719, predicted by LC8Pred] | 10 µM

same assay, conditions: ITC, 25°C, pH 7.5; strong = Kd fit, weak = heat but not fit (>25 μM)

Sequence | binding to LC8 via ITC (in words)
SSTEVQVE [OTOF, peptide from otoferlin, UniProt Q9HC10, predicted by LC8Pred] | bound to LC8
STQTPSPAPASDMP [BSN-shift] | failed to demonstrate even weak binding to LC8
SKTQQTFGSQTECT [TOGARAM1, synthetic peptide from TOGARAM1, UniProt Q9Y4F4] | weak binders
KTLTFSGSSQTVTP [QSER1, synthetic peptide from QSER1, UniProt Q2KHR3] | nonbinders
RTSETNTP [NIN, peptide from ninein, UniProt Q8N4C6, predicted by LC8Pred] | bound to LC8
KDGDTQTD [HTATSF1, peptide from HIV Tat-specific factor 1, UniProt O43719, predicted by LC8Pred] | “strong” binder

same assay, conditions: Table 1, peptides synthesized from phage display hits; ITC, 25°C, 50 mM sodium phosphate, 50 mM NaCl, 1 mM sodium azide, 5 mM β-mercaptoethanol, pH 7.5; 500 μM peptide into 25 μM LC8

Sequence | Binder?
TLVSTASGTQTVFP [SH3RF2, synthetic peptide from SH3RF2, UniProt Q8TEC5] | N
AASLIQKMLQTDPTAR [PLK1, synthetic peptide from PLK1, UniProt P53350] | N
SFRHPGYSTQTHVN [KLK7, synthetic peptide from KLK7, UniProt P49862] | N
DDPMYSSQTQTYGD [KCNQ2, synthetic peptide from KCNQ2, UniProt O43526] | N
LQETLTTSSQANLS [PPP2R3A, synthetic peptide from PPP2R3A, UniProt Q06190] | N
RGDGSDVSSQTPQT [ANKIB1, synthetic peptide from ANKIB1, UniProt Q9P2G1] | N
TTLPVLTSTATKST [MUC5B-1, synthetic peptide from MUC5B, UniProt Q9HC84, residues 3,049-3,062] | N
KITFTKPSTQTTNT [EMSY, synthetic peptide from EMSY, UniProt Q7Z589] | N
DERLMCTGSQTFDD [EFL1, synthetic peptide from EFL1, UniProt Q7Z2Z2] | N
TQDDYFKDKRVHHFRRS [DAZL] | N
STQTPSPAPASDMP [BSN-shift] | N
ITSYNSQGTQLTVE [KY, synthetic peptide from KY, UniProt Q8NBH2] | N
SPSPTGLPTQTPGF [ARAP3, synthetic peptide from ARAP3, UniProt Q8WWN8] | Weak^a (Weak binders are those with affinities >25 μM)
SKTQQTFGSQTECT [TOGARAM1, synthetic peptide from TOGARAM1, UniProt Q9Y4F4] | Weak^a (Weak binders are those with affinities >25 μM)
TPTPTPTGTQTPTT [MUC2, synthetic peptide from MUC2, UniProt Q02817] | N
DDNHWTRSTQTTRE [MUC4] | Y
GQGAALTTATQTTHLE [GP1BA, synthetic peptide from GP1BA, UniProt P07359] | Weak^a (Weak binders are those with affinities >25 μM)

Sequence | Binder?
ESGDGNTGTQTNGL [POU2F1, synthetic peptide from POU2F1, UniProt P14859] | N
TEAKDQCSTQTDFN [EPAS1, synthetic peptide from EPAS1, UniProt Q99814] | N
KTLTFSGSSQTVTP [QSER1, synthetic peptide from QSER1, UniProt Q2KHR3] | N
RSFVLPVESTQDVSSQ [CRYBG1, synthetic peptide from CRYBG1, UniProt Q9Y4K1] | N
NQSFLRTPIQRTPH [SAV1, synthetic peptide from SAV1, UniProt Q9H4B6] | N
CLKETLQITQTEVQ [NFYC, synthetic peptide from NFYC, UniProt Q13952] | N
TLQQPLELTASQLPAG [OTOG, synthetic peptide from OTOG, UniProt Q6ZRI0] | N
AKESCNMETQTSST [OFD1, synthetic peptide from OFD1, UniProt O75665] | Y
RAAALPEETRSSRR [ZNF469, synthetic peptide from ZNF469, UniProt Q96JG9] | N
KHSGRQLTLQHHMG [CUL3, synthetic peptide from CUL3, UniProt Q13618] | N
PLQATISKSQTNPV [UBN2, synthetic peptide from UBN2, UniProt Q6ZU65] | N
SSRSAFSPLQPNAS [DMRTA2, synthetic peptide from DMRTA2, UniProt Q96SC8] | N
DDSGGNATTQTTSD [ROR1, synthetic peptide from ROR1, UniProt Q01973] | Weak^a (Weak binders are those with affinities >25 μM)
EGYRGTANTTTAAYLA [MSTL1, synthetic peptide from MSTL1, UniProt Q2TV78] | N
DDHSGNAQVTQTKFD [DDX1, synthetic peptide from DDX1, UniProt Q92499] | N
LPRKVDTAAQTNSR [IRS1, synthetic peptide from IRS1, UniProt P35568] | N
SMATPSSSTQTSGT [MUC5B-3, synthetic peptide from MUC5B, UniProt Q9HC84, residues 2,673-2,686] | N

same assay, conditions: Table 2, peptides synthesized from favorable sequence comparisons (PSSM); ITC, 25°C, pH 7.5; 500 μM peptide into 25 μM LC8

Sequence | Binder?
KPFMLDEEGDTQTEET [EIF2S2, synthetic peptide from EIF2S2, UniProt P20042] | N
YGQIAPENGTQTPSP [ITGAX, synthetic peptide from ITGAX, UniProt P20702] | N
TQDDYFKDKRVHHFRRS [DAZL] | N
YKIEIPTQCPSCGSK [DNLJ2 (phage T5), synthetic peptide from DNLJ2 (phage T5), UniProt Q5DMI6] | N
YHHRILEAKSIQTSPT [FMN2, synthetic peptide from FMN2, UniProt Q9NZ56] | N
AQPKQKLDTSIQTEYP [MT/HEL (TMV), synthetic peptide from MT/HEL (TMV), UniProt P03586] | N
MDDIFTQCREGN [ILK, synthetic peptide from ILK, UniProt Q13418] | N
KSVAENGDTDTQTSMF [ZZZ3, synthetic peptide from ZZZ3, UniProt Q8IYH5] | N
DFTPAFADFGRQTPGG [EIF4G3, synthetic peptide from EIF4G3, UniProt O43432] | N
YELMASLDQPTQTVVM [EIF3C, synthetic peptide from EIF3C, UniProt Q99613] | N
NKVFAKLHHNTQTFQA [CCL25, synthetic peptide from CCL25, UniProt O15444] | N
YGPDGEETETQTCPP [PRSS36, synthetic peptide from PRSS36, UniProt Q5K4E3] | N

same assay, conditions: pH 7.5

Sequence | Kd
PRATAEFSTQTPSP [BSN^II] | 3.8 µM
